{"source": "paper PMC7368294", "about": "(Proceedings of the National Academy of Sciences of the …, 2020)", "data": [{"biological_target": "T1, Amα1/Amα8/Amβ1 nAChR (Apis mellifera, UniProt A0A7M7MMZ9+A0A8U0WQ70+A0A8U0WQC0)", "T1 sequence (A0A7M7MMZ9 44-627)": "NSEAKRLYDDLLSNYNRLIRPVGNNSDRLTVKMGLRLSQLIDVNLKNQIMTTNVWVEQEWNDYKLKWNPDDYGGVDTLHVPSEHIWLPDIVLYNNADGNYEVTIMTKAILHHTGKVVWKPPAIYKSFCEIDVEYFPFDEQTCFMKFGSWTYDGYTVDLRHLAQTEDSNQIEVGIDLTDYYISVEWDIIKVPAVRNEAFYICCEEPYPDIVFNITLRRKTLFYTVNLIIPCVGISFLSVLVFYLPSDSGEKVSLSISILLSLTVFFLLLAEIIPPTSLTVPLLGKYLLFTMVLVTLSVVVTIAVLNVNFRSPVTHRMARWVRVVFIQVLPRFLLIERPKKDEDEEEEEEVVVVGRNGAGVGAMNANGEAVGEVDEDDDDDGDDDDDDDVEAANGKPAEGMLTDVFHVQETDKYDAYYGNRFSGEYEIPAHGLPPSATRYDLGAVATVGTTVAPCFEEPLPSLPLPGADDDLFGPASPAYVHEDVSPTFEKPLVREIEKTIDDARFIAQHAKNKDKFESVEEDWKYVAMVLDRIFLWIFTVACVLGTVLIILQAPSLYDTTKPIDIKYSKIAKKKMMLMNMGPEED", "T1 sequence (A0A8U0WQ70 25-537)": "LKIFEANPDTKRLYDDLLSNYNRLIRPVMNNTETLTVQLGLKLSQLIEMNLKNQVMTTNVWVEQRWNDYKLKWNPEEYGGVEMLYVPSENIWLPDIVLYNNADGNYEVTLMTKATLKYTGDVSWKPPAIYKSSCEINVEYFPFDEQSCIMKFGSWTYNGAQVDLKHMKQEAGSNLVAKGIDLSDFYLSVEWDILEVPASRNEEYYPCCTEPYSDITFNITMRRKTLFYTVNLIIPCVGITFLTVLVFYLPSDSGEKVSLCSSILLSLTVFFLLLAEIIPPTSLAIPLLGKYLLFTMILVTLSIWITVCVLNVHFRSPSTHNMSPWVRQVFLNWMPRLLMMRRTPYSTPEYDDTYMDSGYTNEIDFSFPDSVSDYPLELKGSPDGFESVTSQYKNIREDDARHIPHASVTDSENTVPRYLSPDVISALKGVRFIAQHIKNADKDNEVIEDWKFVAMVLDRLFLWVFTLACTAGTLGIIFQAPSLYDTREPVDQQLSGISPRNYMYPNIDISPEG", "T1 sequence (A0A8U0WQC0 25-520)": "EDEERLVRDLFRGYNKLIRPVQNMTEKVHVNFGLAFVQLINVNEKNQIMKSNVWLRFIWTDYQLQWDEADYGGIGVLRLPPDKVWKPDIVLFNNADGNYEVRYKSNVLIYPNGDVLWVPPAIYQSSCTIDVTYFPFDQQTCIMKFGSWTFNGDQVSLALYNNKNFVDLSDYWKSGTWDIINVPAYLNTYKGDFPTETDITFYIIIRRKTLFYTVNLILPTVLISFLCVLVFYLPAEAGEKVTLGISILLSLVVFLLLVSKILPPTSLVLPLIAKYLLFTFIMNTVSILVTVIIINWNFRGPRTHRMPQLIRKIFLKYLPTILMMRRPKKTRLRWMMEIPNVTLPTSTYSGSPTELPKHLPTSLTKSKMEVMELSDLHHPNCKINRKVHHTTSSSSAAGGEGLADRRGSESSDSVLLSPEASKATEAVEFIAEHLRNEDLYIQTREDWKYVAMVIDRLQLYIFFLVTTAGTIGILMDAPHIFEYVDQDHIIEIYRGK", "test": "two-electrode voltage clamp of Xenopus oocytes, agonist concentration-response", "assay_type": "cell-based", "units": {"EC50": "nM"}, "values": [{"smiles": "CN/C(=N\\[N+](=O)[O-])NCc1cnc(Cl)s1", "note": "[clothianidin]", "EC50": 11}, {"smiles": "N#C/N=C1\\SCCN1Cc1ccc(Cl)nc1", "note": "[thiacloprid]", "EC50": 11.5}, {"smiles": "O=[N+]([O-])NC1=NCCN1Cc1ccc(Cl)nc1", "note": "[imidacloprid]", "EC50": 23.4}]}]}
